Values quoted from earlier work, collected in patent US20260256955A1, “LIQUID COMPOSITION OF COMPOUND I, PREPARATION METHOD THEREFOR, AND APPLICATION THEREOF” (BEIJING SINOTAU PHARMACEUTICAL TECHNOLOGY CO., LTD, priority 2022, published 2026).

Details: animals

cardiac uptake (15 minutes post-injection): high
liver uptake (15 minutes post-injection): low
heart-to-liver ratio (after 60 minutes): favorable
Compound: CC(C)(C)n1ncc(OCc2cccc(Cn3cc(COCCOCC[18F])nn3)c2)c(Cl)c1=O [Compound I, 2-tert-butyl-4-chloro-5-((3-((4-((2-(2-fluoro[^18F]ethoxy)ethoxy)methyl)-1H-1,2,3-triazol-1-yl)methyl)benzyl)oxy)pyridazin-3(2H)-one]
